We go through four molecules from article PMC9356065, “Novel psoralen derivatives as anti-breast cancer agents and their light-activated cytotoxicity against HER2 positive breast cancer cells” (Scientific Reports, 2022).

As usually defined, the IC50 is the midpoint of a concentration-inhibition curve. As usually defined, the melting point is the temperature of the solid-liquid transition.

Molecules are shown by their SMILES.

One series deals with MDA-MB-231. As to the kind of experiment: MTT cytotoxicity, 48 h, without UVA. In kind it is cell-based. Conditions: Homo sapiens, MDA-MB-231, light or radiation study, I = %inhibition lower than 50%, read-out: Cytotoxic activity MDA-MB-231 %Inhibition. The protocol: (§1) MDA-MB-231 (triple-negative breast cancer) was obtained from M.D. Anderson Cancer Center, Houston, TX, USA). T47-D (hormone-dependent breast carcinoma), SK-BR-3 (human HER2+ breast cancer), and MRC-5 (normal embryonic lung fibroblast) were obtained from the American Type Culture Collection (ATCC, Manassas, VA, USA).
(§2) The cytotoxic effect of tested compounds was evaluated in two breast cancer cell lines, MDA-MB-231 and T47-D. Number of survival cells after exposure to tested compounds for 48 h was determined by MTT assay, as previously described.
`COc1c2occc2c(NC(=O)c2ccc(C(F)(F)F)cc2)c2ccc(=O)oc12` [3d, N-(9-Methoxy-7-oxo-7H-furo[3,2-g]chromen-4-yl)-4-(trifluoromethyl)benzamide]: the inhibition at 50 µg/mL turned out to be 35%.
The same measure, in the same setting: under `COc1c2occc2c(NC(=O)C(C)(C)C)c2ccc(=O)oc12` [3l, N-(9-Methoxy-7-oxo-7H-furo[3,2-g]chromen-4-yl)pivalamide] stands 1%; under `COc1c2occc2c([N+](=O)[O-])c2ccc(=O)oc12` [compound 1, 9-Methoxy-4-nitro-7H-furo[3,2-g]chromen-7-one], 39%.
Same read-out and setting: the figure for `COc1c2occc2c(N)c2ccc(=O)oc12` [compound 2, 4-Amino-9-methoxy-7H-furo[3,2-g]chromen-7-one] is 3%.

In the next series the test system is T47-D. As to the kind of experiment: MTT cytotoxicity, 48 h, without UVA. In kind it is cell-based, human.
Settings: not given
On the procedure: Additionally, the cytotoxicity towards normal cells, human embryonal lung fibroblast cell MRC-5 was also assessed.
as §1, §2
Turning to `COc1c2occc2c(NC(=O)c2ccc(C(F)(F)F)cc2)c2ccc(=O)oc12` [3d, N-(9-Methoxy-7-oxo-7H-furo[3,2-g]chromen-4-yl)-4-(trifluoromethyl)benzamide], the “fold superiority of SI over tamoxifen citrate” value was no less than 2.8 fold.

Staying with this series, now noted: Homo sapiens, T47D, light or radiation study; 48 h; without UVA; I = %inhibition lower than 50%; read-out: Cytotoxic activity T47-D %Inhibition.
Turning to `COc1c2occc2c(NC(=O)C(C)(C)C)c2ccc(=O)oc12` [3l, N-(9-Methoxy-7-oxo-7H-furo[3,2-g]chromen-4-yl)pivalamide], the inhibition at 50 µg/mL is 21%.
The same measure, in the same setting: the figure for `COc1c2occc2c(N)c2ccc(=O)oc12` [compound 2, 4-Amino-9-methoxy-7H-furo[3,2-g]chromen-7-one] is 28%.

The series is the same for the next values; noted with them: Homo sapiens, T47D, light or radiation study; hormone-dependent breast cancer; 48 h; without UVA; read-out: Cytotoxic activity T47-D IC50.
Consider `COc1c2occc2c(NC(=O)c2ccc(C(F)(F)F)cc2)c2ccc(=O)oc12` [3d, N-(9-Methoxy-7-oxo-7H-furo[3,2-g]chromen-4-yl)-4-(trifluoromethyl)benzamide], for which the IC50 came to 13.6 ± 0.26 µM.
Same read-out and setting: the figure for `COc1c2occc2c([N+](=O)[O-])c2ccc(=O)oc12` [compound 1, 9-Methoxy-4-nitro-7H-furo[3,2-g]chromen-7-one] is greater than 100 µM.

Still in this series, the particulars now being: SI = IC50 for MRC-5/IC50 for T47-D.
Regarding `COc1c2occc2c(NC(=O)c2ccc(C(F)(F)F)cc2)c2ccc(=O)oc12` [3d, N-(9-Methoxy-7-oxo-7H-furo[3,2-g]chromen-4-yl)-4-(trifluoromethyl)benzamide], the “Selectivity Index (SI)” value is given as greater than 9.1.

The next series has as its target T1, aromatase (CYP19) (Homo sapiens, UniProt P11511).
T1 sequence (P11511 1-503): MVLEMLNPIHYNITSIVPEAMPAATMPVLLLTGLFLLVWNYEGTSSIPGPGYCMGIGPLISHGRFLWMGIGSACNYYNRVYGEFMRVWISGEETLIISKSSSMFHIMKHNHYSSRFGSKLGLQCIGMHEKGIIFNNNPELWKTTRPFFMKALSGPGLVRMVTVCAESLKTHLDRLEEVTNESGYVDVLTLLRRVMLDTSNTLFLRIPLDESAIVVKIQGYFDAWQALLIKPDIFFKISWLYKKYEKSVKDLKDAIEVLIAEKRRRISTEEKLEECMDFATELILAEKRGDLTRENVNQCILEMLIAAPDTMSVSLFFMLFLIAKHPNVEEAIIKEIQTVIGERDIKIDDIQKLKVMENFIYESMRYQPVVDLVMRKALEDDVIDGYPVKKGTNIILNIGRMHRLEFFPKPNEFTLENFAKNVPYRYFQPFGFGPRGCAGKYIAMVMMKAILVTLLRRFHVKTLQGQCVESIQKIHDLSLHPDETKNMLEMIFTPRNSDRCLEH
As to the kind of experiment: Inhibition of aromatase (AIA). Conditions: at 12.5 µM; I = %inhibition lower than 50%; read-out: Aromatase inhibitory activity %Inhibition. In kind it is biochemical. The protocol: Estrogens are the critical risk factor for breast cancer initiation and progression and the aromatase enzyme involves in the final step conversion of androgens to estrogens[21],[22]. […] In this study, the synthesized psoralen derivatives were also tested for aromatase inhibitory activity (AIA) which is considered to be one of chemopreventive mechanisms for hormone dependent breast cancer.
Inhibition of the aromatase was performed using the method designed by Stresser et al.[39].
Take `COc1c2occc2c(NC(=O)c2ccc(C(F)(F)F)cc2)c2ccc(=O)oc12` [3d, N-(9-Methoxy-7-oxo-7H-furo[3,2-g]chromen-4-yl)-4-(trifluoromethyl)benzamide]: the inhibition at 12.5 µM is 10%.
On the same count and under the same terms, under `COc1c2occc2c(NC(=O)C(C)(C)C)c2ccc(=O)oc12` [3l, N-(9-Methoxy-7-oxo-7H-furo[3,2-g]chromen-4-yl)pivalamide] stands 14%.
In the case of `COc1c2occc2c([N+](=O)[O-])c2ccc(=O)oc12` [compound 1, 9-Methoxy-4-nitro-7H-furo[3,2-g]chromen-7-one], the inhibition at 12.5 µM was determined as 34%.
Same read-out and setting: the figure for `COc1c2occc2c(N)c2ccc(=O)oc12` [compound 2, 4-Amino-9-methoxy-7H-furo[3,2-g]chromen-7-one] is 9%.

The test system of the next series is SK-BR-3. As to the kind of experiment: Dark and light-activated (UVA) cytotoxicity, MTT. Conditions: Homo sapiens, SK-BR-3, light or radiation study; irradiation with UVA (2.0 J cm^−2); HER2+ breast cancer. In kind it is cell-based, human. On the procedure:
(§3) The selected compounds were screened for their IC50 values against both HER2+ breast cancer (SK-BR-3), and HER2− breast cancer (MDA-MB-231) in both dark and light-activated conditions (Table 2). Additionally, a negative control study was also performed with SK-BR-3 and MDA-MB-231 cells in the absence of tested compound under UVA irradiation (See Fig S7., Supporting Information).
(§4) SK-BR-3 and MDA-MB-231 cells were seeded into 96-well cell culture plates at 5 × 10^3 cells/well and incubated for 24 h at 37 °C under 5% CO2. After that, the cells were treated with 50 μM of psoralen derivatives in DMEM with 10% FBS and the cells were continued incubation for another 4 h. After incubation, the cells were washed with PBS (3 times) and then irradiated by a 365 nm lamp with the light intensity of 2.0 J cm^−2 for 12.5 min before re-incubation for another 72 h. After incubation, the cell was treated with methylthiazolyldiphenyl-tetrazolium bromide (MTT reagent 200 μL, 0.5 mg mL^−1, Sigma-Aldrich) for 2 h. After reagent removal, DMSO was added to dissolve the formazan product and the cell viabilities were determined through UV–Vis absorption of the resulting formazan at wavelength 560 nm using a microplate reader (BMG Labtech/SPECTROstar Nano). The cell morphology images were captured by using a light microscope (Microscope Nikon, inverted digital) at 20X magnification prior to treating with MTT reagent.
Turning to `COc1c2occc2c(NC(=O)C(C)(C)C)c2ccc(=O)oc12` [3l, N-(9-Methoxy-7-oxo-7H-furo[3,2-g]chromen-4-yl)pivalamide], half-maximal inhibition (IC50) was put at 48.1 ± 3.07 µM.

In another series the test system is MDA-MB-231. As to the kind of experiment: Dark and light-activated (UVA) cytotoxicity, MTT. In kind it is cell-based. Conditions: Homo sapiens, MDA-MB-231, light or radiation study; irradiation with UVA (2.0 J cm^−2); HER2− breast cancer. On the procedure:
as §3, §4
The molecule `COc1c2occc2c(NC(=O)C(C)(C)C)c2ccc(=O)oc12` [3l, N-(9-Methoxy-7-oxo-7H-furo[3,2-g]chromen-4-yl)pivalamide] showed an IC50 greater than 100 µM.

Tested on in the next series: not listed separately
As to the kind of experiment: Scavenging of diphenyl-picryl-hydrazyl radicals (DPPH). The settings on record: screening concentration 250 µM. An excerpt: 1. Chemoprevention activity
As for `COc1c2occc2c(NC(=O)c2ccc(C(F)(F)F)cc2)c2ccc(=O)oc12` [3d, N-(9-Methoxy-7-oxo-7H-furo[3,2-g]chromen-4-yl)-4-(trifluoromethyl)benzamide], the “DPPH %Inh” value amounted to 7%.
Turning to `COc1c2occc2c(NC(=O)C(C)(C)C)c2ccc(=O)oc12` [3l, N-(9-Methoxy-7-oxo-7H-furo[3,2-g]chromen-4-yl)pivalamide], the “DPPH %Inh” value amounted to 1%.
Same read-out and setting: the figure for `COc1c2occc2c([N+](=O)[O-])c2ccc(=O)oc12` [compound 1, 9-Methoxy-4-nitro-7H-furo[3,2-g]chromen-7-one] is 5%; for `COc1c2occc2c(N)c2ccc(=O)oc12` [compound 2, 4-Amino-9-methoxy-7H-furo[3,2-g]chromen-7-one] it is 23%.

A further series deals with differentiated HL-60 cells. As to the kind of experiment: Inhibition of TPA-induced superoxide anion radical generation (HL-60 Antioxidant). The format is cell-based, human. The settings on record: Homo sapiens, HL-60; screening concentration 100 µM; read-out: HL-60 Antiox. %Inh. An excerpt: Inhibition of 12-O-tetradecanoylphorbol-13-acetate (TPA)-induced superoxide anion radical generation in differentiated HL-60 cells (HL-60 Antioxidant) TPA-induced superoxide anion radical formation was detected in differentiated HL-60 cells by photometric determination of cytochrome c reduction as previously described by Gerhäuser et al., 2003.ii Superoxide dismutase (SOD;15U) was a positive control. […]
Regarding `COc1c2occc2c(NC(=O)C(C)(C)C)c2ccc(=O)oc12` [3l, N-(9-Methoxy-7-oxo-7H-furo[3,2-g]chromen-4-yl)pivalamide], the inhibition at 100 µM amounted to 10%.
In the case of `COc1c2occc2c([N+](=O)[O-])c2ccc(=O)oc12` [compound 1, 9-Methoxy-4-nitro-7H-furo[3,2-g]chromen-7-one], the inhibition at 100 µM came out at 1%.
The same measure, in the same setting: the figure for `COc1c2occc2c(N)c2ccc(=O)oc12` [compound 2, 4-Amino-9-methoxy-7H-furo[3,2-g]chromen-7-one] is 0%.

Still in this series, the particulars now being: screening concentration 100 µM.
As to `COc1c2occc2c(NC(=O)c2ccc(C(F)(F)F)cc2)c2ccc(=O)oc12` [3d, N-(9-Methoxy-7-oxo-7H-furo[3,2-g]chromen-4-yl)-4-(trifluoromethyl)benzamide], the “HL-60 Antiox. %Inh” value is recorded as “Toxic”.

Tested on in a further series: not given
Assay: not given
Settings: not given
Consider `COc1c2occc2c(NC(=O)c2ccc(C(F)(F)F)cc2)c2ccc(=O)oc12` [3d, N-(9-Methoxy-7-oxo-7H-furo[3,2-g]chromen-4-yl)-4-(trifluoromethyl)benzamide], for which the melting point was 284 to 286 °C.
Consider `COc1c2occc2c(NC(=O)C(C)(C)C)c2ccc(=O)oc12` [3l, N-(9-Methoxy-7-oxo-7H-furo[3,2-g]chromen-4-yl)pivalamide], for which the melting point was in the range of 210 to 212 °C.
Molecule `COc1c2occc2c([N+](=O)[O-])c2ccc(=O)oc12` [compound 1, 9-Methoxy-4-nitro-7H-furo[3,2-g]chromen-7-one] displayed a melting point of 237 to 238 °C.
On the same count and under the same terms, the figure for `COc1c2occc2c(N)c2ccc(=O)oc12` [compound 2, 4-Amino-9-methoxy-7H-furo[3,2-g]chromen-7-one] is 238 to 239 °C.

The test system of another series is SK-BR-3. As to the kind of experiment: Dark and light-activated (UVA) cytotoxicity, MTT. Conditions: Homo sapiens, dark, HER2+ breast cancer. In kind it is cell-based.
With `COc1c2occc2c(NC(=O)C(C)(C)C)c2ccc(=O)oc12` [3l, N-(9-Methoxy-7-oxo-7H-furo[3,2-g]chromen-4-yl)pivalamide], the IC50 is greater than 100 µM.

A further series deals with MDA-MB-231. As to the kind of experiment: Dark and light-activated (UVA) cytotoxicity, MTT. In kind it is cell-based. The settings on record: Homo sapiens, dark, HER2− breast cancer.
The molecule `COc1c2occc2c(NC(=O)C(C)(C)C)c2ccc(=O)oc12` [3l, N-(9-Methoxy-7-oxo-7H-furo[3,2-g]chromen-4-yl)pivalamide] yielded an IC50 greater than 100 µM.
